Consider one molecule from publication PMC7321319, “Comparative Molecular Transporter Properties of Cyclic Peptides Containing Tryptophan and Arginine Residues Formed through Disulfide Cyclization” (Molecules, 2020).

In this data set the test system is LLC-PK1, CCRF-CEM, CRL-1739, MDA-MB-231 and SKOV-3 cell lines. Briefly: MTS cell viability assay, statements over the whole cell line panel. The class given is cell-based. The following applies: Dox 5 µM, 24 and 72 h, 37 °C, n = 3.

Procedure: To evaluate the cytotoxicity of synthesized linear (C(WR)xC) and cyclic [C(WR)xC] […] Doxorubicin (Dox, 5 µM) was used as a positive control.
The in vitro cytotoxicity of the peptides was evaluated using the human leukemia carcinoma cell line (CCRF-CEM), normal kidney cell line (LLC-PK1), gastric adenocarcinoma (CRL-1739), ovarian (SKOV-3), and breast carcinoma (MDA-MB-231) cell lines to determine the toxicity of the peptides according to the previously reported procedure [17]. CCRF-CEM cells were seeded at 50,000 cells in 0.1 mL per well in 96-well plates. Other cells were seeded at 5,000 cells in 0.1 mL per well in 96-well plates. All cell lines were seeded in RPMI-1640 medium (pH 7.4) containing FBS (10%), 24 h prior to the experiment. […] This generates formazan crystals which are soluble in cell culture medium and can be measured at 490 nm. Cell viability was then determined by measuring the fluorescence intensity at 490 nm using a SpectraMaxM2 microplate spectrophotometer (Molecular Devices, San Jose, CA, USA). The percentage of cell survival was calculated as [(OD value of cells treated with the test mixture of compounds)−(OD value of culture medium)]/[(OD value of control cells) − (OD value of culture medium)] × 100%.

On to `COc1cccc2c1C(=O)c1c(O)c3c(c(O)c1C2=O)C[C@@](O)(C(=O)CO)C[C@@H]3O[C@H]1C[C@H](N)[C@H](O)[C@H](C)O1` [Dox, Doxorubicin], for which the “cytotoxicity (percentage of cell survival), positive control” value is given as “cytotoxic even at 5 µM”.
